{"source": "paper PMC6358866", "about": "(International Journal of Molecular Sciences, 2019)", "key": {"[1]": {"system": "Staphylococus aureus ATCC 6538 biofilm on CLs", "test": "Lipopeptide, lens liquids and combinations against biofilms on CLs after withdrawal of the antimicrobial solution", "format": "cell-based, Staphylococcus aureus", "conditions": "SA biofilm on CLs, lipopeptide in PBS, after withdrawal and 24 h in MHB II", "experimental": "(§1) Bacterial strains were obtained from the Polish Collection of Microorganisms (Polish Academy of Science, Wroclaw, Poland). Three Gram-positive and two Gram-negative strains linked with CL-related infections were chosen for the study (Staphylococus aureus ATCC 6538, Staphylococcus epidermidis ATCC 14990, Pseudomonas aeruginosa ATCC 9027, Escherichia coli ATCC 25922, and Enterococcus faecalis ATCC 29212). The bacteria were cultured in a Mueller Hinton Broth II (MHB, Biocorp, Warsaw, Poland) overnight, under aerobic conditions at 37 °C. After incubation, the liquid cultures were centrifuged (2500 rpm for 10 min) and washed with phosphoric buffer (PBS, AppliChem, Darmstadt, Germany) three times and resuspended in fresh MHB II for inoculums appropriate for the performed assays.\nBacterial biofilms were cultured on commercially available CLs (1-Day Acuvue Moist, containing Etafilcon A, obtained from Johnson and Johnson Vision Care, Jacksonsville, FL, USA). […] After incubation, resazurin was added (final concentration per sample = 0.01%) and absorbance was measured as in the assays 4.3 and 4.4. […]\nThe assay was also performed for the samples where biofilms on CLs were exposed to pure CL solutions. […] The results were read, calculated, and presented as in the previously-described sections."}, "[2]": {"system": "Pseudomonas aeruginosa ATCC 9027 biofilm on CLs", "test": "Lipopeptide, lens liquids and combinations against biofilms on CLs after withdrawal of the antimicrobial solution", "format": "cell-based", "conditions": "PA biofilm on CLs, all tested concentrations, after withdrawal and 24 h in MHB II", "experimental": "as §1\n(§2) Bacterial biofilms were cultured on commercially available CLs (1-Day Acuvue Moist, containing Etafilcon A, obtained from Johnson and Johnson Vision Care, Jacksonsville, FL, USA). The CLs were placed in polystyrene 24-well plates (Orange Scientific, Braine-l’Alleud, Belgium) in bacterial suspensions in MHB II at initial inoculums of ca. 5 × 10^8 CFU/mL. After 24 h of incubation (aerobic conditions, 120 rpm shaking, 37 °C), all of the CLs were rinsed three times with PBS. […] After incubation, resazurin was added (final concentration per sample = 0.01%) and absorbance was measured as in the assays 4.3 and 4.4. Positive controls contained CLs with bacterial biofilms placed in pure PBS, while sterile CLs incubated in MHB II replaced with PBS served as negative controls. The experiments were performed in triplicate on three different days.\n(§3) The assay was also performed for the samples where biofilms on CLs were exposed to pure CL solutions. Positive controls (100%) were biofilms on CLs in PBS, while negative controls were CLs previously incubated in pure MHB II replaced for the exposure time with PBS. After 24 h of exposure (aerobic conditions, 120 rpm shaking, 37 °C) all the solutions were removed, replaced with MHB II and the samples were incubated for another 24 h. Resazurin was then added in order to visualize the results. The results were read, calculated, and presented as in the previously-described sections."}, "[3]": {"system": "Escherichia coli ATCC 25922 biofilm on CLs", "test": "Lipopeptide, lens liquids and combinations against biofilms on CLs after withdrawal of the antimicrobial solution", "format": "cell-based", "conditions": "EC biofilm on CLs, all tested concentrations, after withdrawal and 24 h in MHB II", "experimental": "as §1, §2, §3"}, "[4]": {"system": "Enterococcus faecalis ATCC 29212 biofilm on CLs", "test": "Lipopeptide, lens liquids and combinations against biofilms on CLs after withdrawal of the antimicrobial solution", "format": "cell-based", "conditions": "EF biofilm on CLs, after withdrawal and 24 h in MHB II", "experimental": "as §1, §2, §3"}, "[5]": {"system": "Staphylococcus epidermidis ATCC 14990 biofilm on CLs", "test": "Lipopeptide, lens liquids and combinations against biofilms on CLs after withdrawal of the antimicrobial solution", "format": "cell-based", "conditions": "SE biofilm on CLs, lipopeptide in PBS, after withdrawal and 24 h in MHB II", "experimental": "as §1, §2, §3"}, "[6]": {"system": "Staphylococus aureus ATCC 6538 biofilm on CLs", "test": "Activity of lipopeptide and CL liquids against biofilms formed on contact lenses", "format": "cell-based, Staphylococcus aureus", "conditions": "SA biofilm on CLs, lipopeptide in PBS, 24 h, resazurin", "experimental": "as §1\nas §2, with “Positive controls contained CLs with bacterial biofilms placed in pure PBS, while sterile CLs incubated in MHB II replaced with PBS served as negative controls. The experiments were performed in triplicate on three different days.” left out"}, "[7]": {"system": "Pseudomonas aeruginosa ATCC 9027 biofilm on CLs", "test": "Activity of lipopeptide and CL liquids against biofilms formed on contact lenses", "format": "cell-based", "conditions": "PA biofilm on CLs, lipopeptide in PBS, 24 h, resazurin", "experimental": "as §1, §2"}, "[8]": {"system": "Escherichia coli ATCC 25922 biofilm on CLs", "test": "Activity of lipopeptide and CL liquids against biofilms formed on contact lenses", "format": "cell-based", "conditions": "EC biofilm on CLs, lipopeptide in PBS, 24 h, resazurin", "experimental": "as §1, §2"}, "[9]": {"system": "Enterococcus faecalis ATCC 29212 biofilm on CLs", "test": "Activity of lipopeptide and CL liquids against biofilms formed on contact lenses", "format": "cell-based", "conditions": "EF biofilm on CLs, lipopeptide in PBS, 24 h, resazurin", "experimental": "as §1, §2"}, "[10]": {"system": "Staphylococcus epidermidis ATCC 14990 biofilm on CLs", "test": "Activity of lipopeptide and CL liquids against biofilms formed on contact lenses", "format": "cell-based", "conditions": "SE biofilm on CLs, lipopeptide in PBS, 24 h, resazurin", "experimental": "as §1, §2"}, "[11]": {"system": "Staphylococcus epidermidis ATCC 14990 biofilm", "test": "Effect of the lipopeptide on lens liquids against biofilms on 96-well polystyrene plates", "format": "cell-based", "conditions": "SE biofilm on polystyrene, lipopeptide alone in PBS, 24 h", "experimental": "as §1, with “After incubation, the liquid cultures were centrifuged (2500 rpm for 10 min) and washed with phosphoric buffer (PBS, AppliChem, Darmstadt, Germany) three times and resuspended in fresh MHB II for inoculums appropriate for the performed assays.” left out\n(§4) Bacterial suspensions were added to 96-well plates (Kartell, Noviglio, Italy) at initial inoculums of ca. 5 × 10^8 CFU/mL and incubated under aerobic conditions with shaking (120 rpm) at 37 °C for 24 h. […] After 1.5 h of incubation, the absorbance was measured at 570 and 600 nm using a microplate reader (Thermo Fisher Scientific, Waltham, MA, USA). […] The metabolic activity of bacteria in the samples was measured according to the following formula:\n(§5) Positive controls (100%) were wells with pre-grown biofilms where the MHB II was replaced with pure PBS, while negative controls were wells with pure MHB II (also replaced with PBS). After 24 h of incubation (aerobic conditions, 120 rpm shaking, 37 °C), the solutions were replaced with resazurin in MHB II and the results were read and presented as described in Section 4.3."}, "[12]": {"system": "Enterococcus faecalis ATCC 29212 biofilm", "test": "Effect of the lipopeptide on lens liquids against biofilms on 96-well polystyrene plates", "format": "cell-based", "conditions": "EF biofilm on polystyrene, lipopeptide alone in PBS, 'the same concentration' (32 or 16 mg/L), 24 h", "experimental": "as §1, with “After incubation, the liquid cultures were centrifuged (2500 rpm for 10 min) and washed with phosphoric buffer (PBS, AppliChem, Darmstadt, Germany) three times and resuspended in fresh MHB II for inoculums appropriate for the performed assays.” left out\nas §4, §5"}}, "data": [{"substance": "(C10)2-KKKK-NH2 [Lipopeptide]", "values": [{"measurement": "concentration permanently removing biofilm from CLs", "setting": "[1]", "value": 16, "unit": "mg/L"}, {"measurement": "regrowth of bacterial population after removal", "setting": "[2]", "value": "fully restored"}, {"measurement": "regrowth of bacterial population after removal", "setting": "[3]", "value": "ca. 50%"}, {"measurement": "effect on biofilm after removal of the agent", "setting": "[4]", "value": "promoted bacterial growth"}, {"measurement": "concentration permanently removing biofilm from CLs", "setting": "[5]", "value": 16, "unit": "mg/L"}, {"measurement": "concentration reducing metabolic activity of bacteria by at least 90%", "setting": "[6]", "value": 16, "unit": "mg/L"}, {"measurement": "concentration reducing metabolic activity by more than 90%", "setting": "[7]", "value": 32, "unit": "mg/L"}, {"measurement": "concentration reducing metabolic activity by more than 90%", "setting": "[8]", "value": 32, "unit": "mg/L"}, {"measurement": "concentration reducing metabolic activity of bacteria by at least 90%", "setting": "[9]", "value": 8, "unit": "mg/L"}, {"measurement": "concentration reducing metabolic activity of bacteria by at least 90%", "setting": "[10]", "value": 8, "unit": "mg/L"}, {"measurement": "concentration at which highly active against biofilm", "setting": "[11]", "value": 16, "unit": "mg/L"}, {"measurement": "reduction of metabolic activity in the biofilm", "setting": "[12]", "value": "ca. 95%"}]}]}
